Series [1] deals with SARS-CoV-2. The series is described as follows: Antiviral activity against SARS CoV-2 spike-pseudotyped lentivirus infected in human A549-hACE2-TMPRSS2 cells assessed as inhibition of viral entry incubated for 24 hrs in absence of BSA by luciferase reporter assay. It counts as functional, organism-based. To be noted: Severe acute respiratory syndrome coronavirus 2, A549-hACE2-TMPRSS2, 24 h. (In a reporter assay the amount or activity of a reporter protein is the signal.)

For series [2], the system named is SARS-CoV-2. The series is described as follows: Antiviral activity against SARS CoV-2 spike-pseudotyped lentivirus infected in human A549-hACE2-TMPRSS2 cells assessed as inhibition of viral entry preincubated with 10 mg/ml BSA for 5 mins followed by viral infection and further incubated for 24 hrs by luciferase reporter assay. The class given is functional, organism-based. To be noted: Severe acute respiratory syndrome coronavirus 2, A549-hACE2-TMPRSS2.

Series [3] relates to SARS-CoV-2. The series is described as follows: Antiviral activity against luciferase independent SARS CoV-2 spike-pseudotyped lentivirus infected in human A549-hACE2-TMPRSS2 cells assessed as inhibition of viral entry by measuring reduction in luciferase activity incubated for 24 hrs by luciferase reporter assay. As to conditions: Severe acute respiratory syndrome coronavirus 2. It counts as functional, organism-based.

Series [4] deals with SARS-CoV-2. The series is described as follows: Antiviral activity against luciferase independent SARS CoV-2 spike-pseudotyped lentivirus infected in human A549-hACE2-TMPRSS2 cells assessed as inhibition of viral entry compound spin-down for 1 hr followed by viral infection and measured after 24 hrs by luciferase reporter assay. As to conditions: Severe acute respiratory syndrome coronavirus 2, A549-hACE2-TMPRSS2. It counts as functional, organism-based.

Series [5] deals with SARS-CoV-2. Nature of the series: Antiviral activity against luciferase independent SARS CoV-2 spike-pseudotyped lentivirus infected in human A549-hACE2-TMPRSS2 cells assessed as inhibition of viral entry measured after 24 hrs before centrifugation by luciferase reporter assay. It counts as functional, organism-based. To be noted: Severe acute respiratory syndrome coronavirus 2, A549-hACE2-TMPRSS2.

Series [6] concerns the target Spike glycoprotein (Severe acute respiratory syndrome coronavirus 2) (UniProt P0DTC2). Nature of the series: Binding affinity to Alex-fluor-647 labeled SARS-CoV-2 spike protein assessed as protein-colloid complex formation by measuring fluorescence puncta formation at 200 uM incubated for 5 mins by confocal microscopic analysis.
A short description of series [7]: Inhibition of porcine heart MDH using oxaloacetic acid as substrate preincubated for 5 mins followed by substrate and […] addition and measured for 80 sec by absorbance based analysis. On the set-up: species or system Sus scrofa.
The species named for series [8] is Sus scrofa. The series is described as follows: Inhibition of porcine heart MDH using oxaloacetic acid as substrate assessed as enzyme recovery by measuring residual activity at approximately IC90 preincubated for 5 mins in presence of triton X-0.01% followed by substrate and […] addition and measured for 80 sec by absorbance based analysis relative to control. To be noted: time 380.0 sec.

Series [9] is filed under the species Sus scrofa. Nature of the series: Inhibition of porcine heart MDH using oxaloacetic acid as substrate assessed as enzyme recovery by measuring residual activity at approximately IC90 preincubated for 5 mins in presence of 10 mg/ml BSA followed by enzyme addition and measured after 5 mins by absorbance based analysis relative to control. As to conditions: time 10.0 min.

A short description of series [10]: Absorption property of compound in DMEM media at 100 to 200 uM at 500 to 700 nm by luciferase assay. The class given is physicochemical. To be noted: dose 100-200 µM.
Series [11] has as its system SARS-CoV-2. The series is described as follows: Antiviral activity against luciferase independent SARS CoV-2 spike-pseudotyped lentivirus infected in human A549-hACE2-TMPRSS2 cells assessed as inhibition of viral entry at 31.6 to 63.3 uM compound spin-down for 1 hr followed by viral infection and measured after 24 hrs by luciferase reporter assay. The class given is functional, organism-based. As to conditions: Severe acute respiratory syndrome coronavirus 2, dose 31.6-63.3 µM, time 25.0 hrs.

For series [12], the system named is SARS-CoV-2. Nature of the series: Antiviral activity against SARS-CoV-2 infected in Vero E6 cells assessed as reduction in virus induced cytopathic effect pretreated for 30 mins followed by virus infection and measured after 72 hrs by MTS assay. The class given is functional, organism-based. As to conditions: Severe acute respiratory syndrome coronavirus 2, Vero C1008. In general terms: Protection from cytopathic effect is a common read-out in antiviral testing.

Series [13] is described as follows: Aggregation property of compound in 50 mM KPi buffer at pH 7 assessed as critical aggregation concentration by DLS assay. The class given is physicochemical.
The nature of series [14]: Aggregation property of compound in DMEM media assessed as critical aggregation concentration by DLS assay. The class given is physicochemical.
Series [15] in a line: Inhibition of Beta-lactamase AmpC (unknown origin) using CENTA as chromogenic substrate preincubated for 5 mins followed by substrate addition and measured for 80 sec by absorbance based analysis. Also noted: species or system Bacteria.
Series [16] deals with Bacteria. The series is described as follows: Inhibition of Beta-lactamase AmpC (unknown origin) using CENTA as chromogenic substrate assessed as enzyme recovery by measuring residual activity at approximately IC90 preincubated for 5 mins in presence of triton X-0.01% followed by substrate addition and measured for 80 sec by absorbance based analysis relative to control. To be noted: time 380.0 sec.

The test system of series [17] is Bacteria. The series is described as follows: Inhibition of Beta-lactamase AmpC (unknown origin) using CENTA as chromogenic substrate assessed as enzyme recovery by measuring residual activity at approximately IC90 preincubated for 5 mins in presence of 10 mg/ml BSA followed by enzyme addition and measured after 5 mins by absorbance based analysis relative to control. To be noted: time 10.0 min.

The subject of a further series is SARS-CoV. The series is described as follows: Antiviral activity against HIV-Luc pseudotyped SARS CoV infected in Vero E6 cells assessed as reduction in virus entry preincubated for 30 mins followed by infection in cells and measured after 36 hrs by luciferase assay. It counts as functional, organism-based. As to conditions: Severe acute respiratory syndrome-related coronavirus, Vero C1008.

Series [18] concerns SARS-CoV-2. The series is described as follows: Antiviral activity against SARS-CoV-2. The class given is functional, organism-based. As to conditions: Severe acute respiratory syndrome coronavirus 2.
In series [19] the test system is SARS-CoV-2. The series is described as follows: Antiviral activity against SARS-CoV-2 pseudovirus infected in 293T/ACE2 cells assessed as reduction in virus entry preincubated with compound followed by infection in cells and measured after 48 hrs by luciferase based assay. As to conditions: Severe acute respiratory syndrome coronavirus 2, 293T/ACE2. It counts as functional, organism-based.

Series [20] deals with SARS-CoV-2. Nature of the series: Antiviral activity against SARS-CoV-2 infected in Vero E6 cells assessed as reduction in viral infectivity. To be noted: Severe acute respiratory syndrome coronavirus 2, Vero C1008. It counts as functional, organism-based.

Active and inactive are the calls of the source. The rule behind the calls is not given here.

A word on the EC50: it is the concentration that produces a half-maximal response. Broadly, the IC50 is the point on the concentration scale where inhibition reaches its midpoint. A high value points to a need for much substance.

In the case of `CN1CCCC(n2nc(Cc3ccc(Cl)cc3)c3ccccc3c2=O)CC1` (centres undefined) [AZELASTINE], the EC50 with SARS-CoV-2 [1] was 27 µM; in the series on SARS-CoV-2 [2], 44.7 µM; in the series on SARS-CoV-2 [4], 12.9 µM; with SARS-CoV-2 [5], 18.7 µM. Besides, the outcome in the series on SARS-CoV-2 [3] was Active. Further, the outcome in [6] was inactive.

As to `Cc1ccc(C(=O)Nc2ccc(S(=O)(=O)O)c3cc(S(=O)(=O)O)cc(S(=O)(=O)O)c23)cc1NC(=O)c1cccc(NC(=O)Nc2cccc(C(=O)Nc3cc(C(=O)Nc4ccc(S(=O)(=O)O)c5cc(S(=O)(=O)O)cc(S(=O)(=O)O)c45)ccc3C)c2)c1` [SURAMIN], in series [7], inhibition was half-maximal at 1.2 µM (IC50). The Activity in the series filed under Sus scrofa [8] is -4.8%; in the series filed under Sus scrofa [9], 91%; in series [10], “Not Active”. The outcome in the series with SARS-CoV-2 [11] was Active. Further, in the series on SARS-CoV-2 [12], the EC50 turned out to be 20 µM.

As to `O=C(OC[C@H]1O[C@@H](OC(=O)c2cc(O)c(O)c(O)c2)[C@H](OC(=O)c2cc(O)c(O)c(O)c2)[C@@H](OC(=O)c2cc(O)c(O)c(O)c2)[C@@H]1O)c1cc(O)c(O)c(O)c1`, the figures for the CAC in [13] and in series [14] were 12 µM and 9.8 µM, respectively. In series [15], this compound gave a half-maximal inhibitory concentration (IC50) of 13 µM. In addition, the figures for the Activity (with Bacteria [16]; in the series on Bacteria [17]; in series [10]) were 51%, 80% and “Not Active”, respectively. Moreover, the EC50 amounted to 0.07 µM in the series with SARS-CoV-2 [1] and 2.86 µM in the series with SARS-CoV.

Regarding `CC1(C)[C@@H](O[C@H]2O[C@H](C(=O)O)[C@@H](O)[C@H](O)[C@H]2O[C@@H]2O[C@H](C(=O)O)[C@@H](O)[C@H](O)[C@H]2O)CC[C@]2(C)[C@H]3C(=O)C=C4[C@@H]5C[C@@](C)(C(=O)O)CC[C@]5(C)CC[C@@]4(C)[C@]3(C)CC[C@@H]12` [GLYCYRRHIZIN], the values for the CAC in series [13] and in series [14] were 10 µM and 15 µM, respectively. The compound also registered a concentration for half-maximal inhibition (IC50) in series [15] of 33 µM. In addition, the Activity in the series on Bacteria [16] is 47%; in the series on Bacteria [17], 60%; in series [10], “Not Active”. For the same compound, the outcome in the series on SARS-CoV-2 [3] was Active. In addition, the values for the concentration for a half-maximal effect (EC50) in the series with SARS-CoV-2 [4], in the series on SARS-CoV-2 [5] and in the series on SARS-CoV-2 [18] were 45.7 µM, 2.6 µM and 2500 µM, respectively.

Take `C[C@]12CC[C@@H]3c4ccc(OC(=O)c5ccccc5)cc4CC[C@H]3[C@@H]1CC[C@@H]2O` [ESTRADIOL BENZOATE]: the CAC is 9.3 µM in series [13] and 1.8 µM in series [14]. Besides, in series [7], the IC50 came out at 87 µM. Further, the Activity in the series filed under Sus scrofa [8] is 89.1%; in the series listed under Sus scrofa [9], 62%; in series [10], “Not Active”. Further, the EC50 in the series with SARS-CoV-2 [19] is 0.27 µM.

Regarding `COc1cc(/C=C/C(=O)CC(=O)/C=C/c2ccc(O)c(OC)c2)ccc1O` [CURCUMIN], the CAC in series [13] was 26 µM; in [14] it was 12 µM. The IC50 in series [7] was found to be 14 µM. Also, the results for the Activity (in the series listed under Sus scrofa [8]; in the series filed under Sus scrofa [9]; in [10]) were 116%, 124% and “Not Active”, respectively. Also, in the series with SARS-CoV-2 [20], the EC50 was determined as 16.3 µM.

These data come from ChEMBL document CHEMBL5512692, “Colloidal Aggregation Confounds Cell-Based Covid-19 Antiviral Screens” (J Med Chem, 2024).
